The term LC50 denotes the concentration lethal to half of the exposed cells or organisms.

Converted amounts (≈) assume the structure as drawn.

One series deals with MG. Kind of series: DOX potency assay (MTT). It counts as cell-based, mouse. The following applies: DOX concentration, 24-hour incubation. The method, then: (§1) Encapsulation of DOX into HALNPs Doxorubicin (DOX) was encapsulated inside the aqueous core of the HALNPs as described above and in Hayward et al, Sci. Rep. 2015, 5:14683. Briefly, a vial of lyophilized HALNPs (0.5 mg lipid) was brought to room temperature, and rehydrated with 1/10th its original pre-lyophilized volume of 0.05×PBS containing 250 μg DOX. Following a thirty minute incubation time to allow for lipid membrane re-assembly, the vial was brought back to its full pre-lyophilized volume with 1×PBS and ultracentrifuged to remove non-encapsulated DOX (140,000 g, 4° C., and 1.25 hr.). The auto-fluorescent property of DOX was then used to determine the entrapment payload. […]
(§2) To determine the effect of free DOX and HALNPDOX on the cell viability of Cort Astro, MG and A172 cells, an MTT assay was utilized as described herein to calculate the lethal concentration to kill 50% of the cells (see also, e.g., Hayward et al, Sci. Rep. 2015, 5:14683; Wilson et al, Nanoscale, 2015, 7:18477-18488; Natarajan et al, PLOS One, 2015, 10:e0134541). […] The cells were then lysed with acidified IPA and the absorbance of the produced formazan crystals was measured using a Beckman Coulter AD340 plate reader (Indianapolis, Ind., USA). Percent viability was determined by normalization of the 570/620 absorbance ratio to the control untreated cells and positive control dead cells (ethanol treated).

The subject of the next series is Cort Astro. Briefly: DOX potency assay (MTT). It counts as cell-based, rat. Conditions: DOX concentration, 24-hour incubation. The protocol:
as §1, §2

Series [1] relates to 21MT-1 metastatic breast cancer cells. Briefly: Doxorubicin potency assay (MTT). It counts as cell-based, human. The following applies: DOX concentration, 24 hours. The method, then:
The DOX concentration lethal to 50% of the 21MT-1 cells (LC50) was determined utilizing the MTT (3-(4,5-[…])2,5-diphenyl tetrazolium bromide) assay kit from Life Technologies (Carlsbad, Calif., USA). This colorimetric assay assesses cell health as a function of the mitochondrial conversion of MTT salt to Formazan. A two-step procedure was implemented for precise loading of DOX into the HALNPs and then into the HALNP-PEM platform.
First a solution of […] of DOX in 0.05×PBS was used to rehydrate a lyophilized vial of HALNPs and excess (un-encapsulated) DOX was removed using ultracentrifugation (140,000 g, 1.25 hrs, 4° C.). […] The initial vial of HALNPs (1 mg Total Lipid) concentration was known, thus both the total amount of encapsulated DOX and lipid were fully determined. […]
21MT-1 cells were seeded at a density of 32,000 cells/well in three 48 well plates with different DOX configurations: 1) PEM platform with embedded HALNPDOX [(PLL/SPS)4.5(HALNPDOX)(PLL/SPS)2.5], 2) Bolus form HALNPDOX, and 3) free non-encapsulated DOX. […] Cells were then lysed with lysis buffer (acidified IPA) and the absorbance was measured at 570 and 620 nm using a Beckman Coulter AD340 plate reader (Indianapolis, Ind., USA). Percent viability was determined by normalization of the 570/620 absorbance ratio to the control untreated cells and positive control dead cells.

Another series concerns A172. Kind of series: DOX potency assay (MTT). It counts as cell-based. Conditions: DOX concentration, 24-hour incubation. The method, then:
as §1, §2

Take `COc1cccc2c1C(=O)c1c(O)c3c(c(O)c1C2=O)C[C@@](O)(C(=O)CO)C[C@@H]3O[C@H]1C[C@H](N)[C@H](O)[C@H](C)O1` [Free DOX, doxorubicin]: the “LC50 values” in the series with MG stood at 0.267 ± 0.050 µg/mL (≈ 0.491 µM); in the series on Cort Astro it was 0.322 ± 0.053 µg/mL (≈ 0.592 µM); with A172, 0.193 ± 0.030 µg/mL (≈ 0.355 µM). In series [1], the “LC50” value is 0.191 ± 0.0301 µg/mL (≈ 0.351 µM).

(Values after US11752219B2, “Substrate delivery of embedded liposomes” (NUtech Ventures, priority 2015, dated 2023).)
